The results in this text go back to patent publication US12448399B2, “Cereblon-based KRAS degrading PROTACs and uses related thereto” (Arvinas Operations, Inc., priority 2023, dated 2025).

The target of this experiment is T1, KRas-G12D (Homo sapiens, UniProt P01116, G12D).
T1 construct: insert the HiBiT tag onto the N-terminus of one or more of the endogenous KRas alleles; host or cells: AsPC-1 HiBiT-KRasG12D knock-in clone (one tagged allele, two untagged KRasG12D alleles)
Nature of the experiment: HiBiT Degradation Assay (G12D), AsPC-1 HiBiT-KRasG12D cells, 24 hr. Format: cell-based. The settings on record: for Dmax: ASPC1, AsPC-1 cells, maximum degradation observed; for DC50: AsPC-1 cells. A digest of the protocol:
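AsPC-1 cells with CRISPR N-terminal HiBiT knock-in on one endogenous KRasG12D allele, treated 24 hr at 37° C with compound titrations in 0.5% DMSO. Lytic HiBiT luminescence normalized to DMSO, fitted to a 4-parameter model for DC50 and Dmax. Parallel alamar blue (4 hr) checked viability.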
For orientation: The HiBiT peptide binds its large partner to form an active luciferase.

T1 sequence (P01116 1-188 isoform P01116-2 G12D): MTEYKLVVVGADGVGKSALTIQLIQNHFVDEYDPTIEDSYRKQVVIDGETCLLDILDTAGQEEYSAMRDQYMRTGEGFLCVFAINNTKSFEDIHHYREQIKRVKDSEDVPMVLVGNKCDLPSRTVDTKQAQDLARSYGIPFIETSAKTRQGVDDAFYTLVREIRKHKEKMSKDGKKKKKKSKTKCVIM

Turning to `CCc1c(F)ccc2cc(O)cc(-c3ncc4c(N5CC6CCC(C5)N6)nc(OCCN5CCC(CC6CCN(CC7CCN(c8ccc9c(c8)CN(C8CCC(=O)NC8=O)C9=O)CC7)CC6)CC5)nc4c3F)c12` (centres unmarked) [Compound 86, 3-{5-[4-({4-[(1-{2-[(4-{3,8-diazabicyclo[3.2.1]octan-3-yl}-7-(8-ethyl-7-fluoro-3-hydroxynaphthalen-1-yl)-8-fluoropyrido[4,3-d]pyrimidin-2-yl)oxy]ethyl}piperidin-4-yl)methyl]piperidin-1-yl}methyl)piperidin-1-yl]-1-oxo-2,3-dihydro-1H-isoindol-2-yl}piperidine-2,6-dione], the Dmax (as a rule, the greatest extent of degradation seen) was greater than 70% and the DC50 – broadly, the midpoint of the concentration-degradation curve – is less than 5.1 µM.
As to `C#Cc1c(F)ccc2cc(O)cc(-c3ncc4c(N5CC6CCC(C5)N6)nc(OCCN5CCC(CN6CCC(CC7CCN(c8ccc9c(c8)CN(C8CCC(=O)NC8=O)C9=O)CC7)CC6)CC5)nc4c3F)c12` (centres unmarked) [Compound 87, 3-[5-[4-[[1-[[1-[2-[4-(3,8-diazabicyclo[3.2.1]octan-3-yl)-7-(8-ethynyl-7-fluoro-3-hydroxy-1-naphthyl)-8-fluoropyrido[4,3-d]pyrimidin-2-yl]oxyethyl]-4-piperidyl]methyl]-4-piperidyl]methyl]-1-piperidyl]-1-oxo-isoindolin-2-yl]piperidine-2,6-dione], the greatest degradation seen (Dmax) is greater than 70% and the DC50 was less than 5.1 µM.
`C#Cc1c(F)ccc2cc(O)cc(-c3ncc4c(N5CC6CCC(C5)N6)nc(OCCN5CCC(CN6CCC(CC7CCN(c8ccc9c(c8F)CN(C8CCC(=O)NC8=O)C9=O)CC7)CC6)CC5)nc4c3F)c12` (centres unmarked) [Compound 88, 3-{5-[4-({1-[(1-{2-[(4-{3,8-diazabicyclo[3.2.1]octan-3-yl}-7-(8-ethynyl-7-fluoro-3-hydroxynaphthalen-1-yl)-8-fluoropyrido[4,3-d]pyrimidin-2-yl)oxy]ethyl}piperidin-4-yl)methyl]piperidin-4-yl}methyl)piperidin-1-yl]-4-fluoro-1-oxo-2,3-dihydro-1H-isoindol-2-yl}piperidine-2,6-dione] showed a Dmax greater than 70% and a 50% degradation concentration (DC50) of less than 5.1 µM.
In the same order, the values of `C#Cc1c(F)ccc2cc(O)cc(-c3ncc4c(N5CC6CCC(C5)N6)nc(OCCN5CCC(CC6CCN(c7ccc8c(c7)n(C)c(=O)n8C7CCC(=O)NC7=O)CC6)CC5)nc4c3F)c12` (centres unmarked) [Compound 89, 3-(5-{4-[(1-{2-[(4-{3,8-diazabicyclo[3.2.1]octan-3-yl}-7-(8-ethynyl-7-fluoro-3-hydroxynaphthalen-1-yl)-8-fluoropyrido[4,3-d]pyrimidin-2-yl)oxy]ethyl}piperidin-4-yl)methyl]piperidin-1-yl}-3-methyl-2-oxo-2,3-dihydro-1H-1,3-benzodiazol-1-yl)piperidine-2,6-dione] are greater than 70% and less than 5.1 µM.
As for `C#Cc1c(F)ccc2cc(O)cc(-c3ncc4c(N5CC6CCC(C5)N6)nc(OCCN5CCC(CC6(F)CCN(CC7CCN(c8ccc9c(c8)CN(C8CCC(=O)NC8=O)C9=O)CC7)CC6)CC5)nc4c3F)c12` (centres unmarked) [Compound 90, 3-{5-[4-({4-[(1-{2-[(4-{3,8-diazabicyclo[3.2.1]octan-3-yl}-7-(8-ethynyl-7-fluoro-3-hydroxynaphthalen-1-yl)-8-fluoropyrido[4,3-d]pyrimidin-2-yl)oxy]ethyl}piperidin-4-yl)methyl]-4-fluoropiperidin-1-yl}methyl)piperidin-1-yl]-1-oxo-2,3-dihydro-1H-isoindol-2-yl}piperidine-2,6-dione], the DC50 was greater than 1 µM.
With `C#Cc1c(F)ccc2cc(O)cc(-c3ncc4c(N5CC6CCC(C5)N6)nc(OCCN5CCC(F)(CC6CCN(CC7CCN(c8ccc9c(c8)CN(C8CCC(=O)NC8=O)C9=O)CC7)CC6)CC5)nc4c3F)c12` (centres unmarked) [Compound 91, 3-[5-[4-[[4-[[1-[2-[4-(3,8-diazabicyclo [3.2.1]octan-3-yl)-7-(8-ethynyl-7-fluoro-3-hydroxy-1-naphthyl)-8-fluoro-pyrido[4,3-d]pyrimidin-2-yl]oxyethyl]-4-fluoro-4-piperidyl]methyl]-1-piperidyl]methyl]-1-piperidyl]-1-oxo-isoindolin-2-yl]piperidine-2,6-dione], the maximal degradation (Dmax) was greater than 70% and the 50% degradation concentration (DC50) was less than 5.1 µM.
For `C#Cc1c(F)ccc2cc(O)cc(-c3ncc4c(N5CC6CCC(C5)N6)nc(OCCN5CCC(CN6CCC7(CC6)CCN(c6ccc8c(c6F)CN(C6CCC(=O)NC6=O)C8=O)CC7)CC5)nc4c3F)c12` (centres unmarked) [Compound 92, 3-(5-{9-[(1-{2-[(4-{3,8-diazabicyclo[3.2.1]octan-3-yl}-7-(8-ethynyl-7-fluoro-3-hydroxynaphthalen-1-yl)-8-fluoropyrido[4,3-d]pyrimidin-2-yl)oxy]ethyl}piperidin-4-yl)methyl]-3,9-diazaspiro[5.5]undecan-3-yl}-4-fluoro-1-oxo-2,3-dihydro-1H-isoindol-2-yl)piperidine-2,6-dione], in that order: greater than 70% and less than 5.1 µM.
Compound `C#Cc1c(F)ccc2cc(O)cc(-c3ncc4c(N5CC6CCC(C5)N6)nc(OCCN5CCC(CN6CCC7(CC6)CCN(c6ccc8c(c6)CN(C6CCC(=O)NC6=O)C8=O)CC7)CC5)nc4c3F)c12` (centres unmarked) [Compound 93, 3-(5-{9-[(1-{2-[(4-{3,8-diazabicyclo[3.2.1]octan-3-yl}-7-(8-ethynyl-7-fluoro-3-hydroxynaphthalen-1-yl)-8-fluoropyrido[4,3-d]pyrimidin-2-yl)oxy]ethyl}piperidin-4-yl)methyl]-3,9-diazaspiro[5.5]undecan-3-yl}-1-oxo-2,3-dihydro-1H-isoindol-2-yl)piperidine-2,6-dione] registered a Dmax greater than 70% and a half-maximal degradation concentration (DC50) of less than 5.1 µM.
In the same order, the values of `C#Cc1c(F)ccc2cc(O)cc(-c3ncc4c(N5CC6CCC(C5)N6)nc(OCCN5CCC(CC6CCN(CC7CCN(c8cccc9c8n(C(C)C)c(=O)n9C8CCC(=O)NC8=O)CC7)CC6)CC5)nc4c3F)c12` (centres unmarked) [Compound 94, 3-{4-[4-({4-[(1-{2-[(4-{3,8-diazabicyclo[3.2.1]octan-3-yl}-7-(8-ethynyl-7-fluoro-3-hydroxynaphthalen-1-yl)-8-fluoropyrido[4,3-d]pyrimidin-2-yl)oxy]ethyl}piperidin-4-yl)methyl]piperidin-1-yl}methyl)piperidin-1-yl]-2-oxo-3-(propan-2-yl)-2,3-dihydro-1H-1,3-benzodiazol-1-yl}piperidine-2,6-dione] are greater than 70% and less than 5.1 µM.
The compound `C#Cc1c(F)ccc2cc(O)cc(-c3ncc4c(N5CC6CCC(C5)N6)nc(OC[C@@H]5C[C@@H](OC6CCN(CC7CCN(c8ccc9c(c8)n(C(C)C)c(=O)n9C8CCC(=O)NC8=O)CC7)CC6)CN5C)nc4c3F)c12` (stereo partly drawn) [Compound 95, 3-(5-{4-[(4-{[(3R,5S)-5-{[(4-{3,8-diazabicyclo[3.2.1]octan-3-yl}-7-(8-ethynyl-7-fluoro-3-hydroxynaphthalen-1-yl)-8-fluoropyrido[4,3-d]pyrimidin-2-yl)oxy]methyl}-1-methylpyrrolidin-3-yl]oxy}piperidin-1-yl)methyl]piperidin-1-yl}-2-oxo-3-(propan-2-yl)-2,3-dihydro-1H-1,3-benzodiazol-1-yl)piperidine-2,6-dione] registered a maximal degradation (Dmax) greater than 70% and a 50% degradation concentration (DC50) of less than 5.1 µM.
For `C#Cc1c(F)ccc2cc(O)cc(-c3ncc4c(N5CC6CCC(C5)N6)nc(OC[C@@H]5C[C@@H](OC6CCN(CC7CCN(c8ccc9c(c8)n(C)c(=O)n9C8CCC(=O)NC8=O)CC7)CC6)CN5C)nc4c3F)c12` (stereo partly drawn) [Compound 96, 3-(5-{4-[(4-{[(3R,5S)-5-{[(4-{3,8-diazabicyclo[3.2.1]octan-3-yl}-7-(8-ethynyl-7-fluoro-3-hydroxynaphthalen-1-yl)-8-fluoropyrido[4,3-d]pyrimidin-2-yl)oxy]methyl}-1-methylpyrrolidin-3-yl]oxy}piperidin-1-yl)methyl]piperidin-1-yl}-3-methyl-2-oxo-2,3-dihydro-1H-1,3-benzodiazol-1-yl)piperidine-2,6-dione], in that order: greater than 70% and less than 5.1 µM.
In turn, `C#Cc1c(F)ccc2cc(O)cc(-c3ncc4c(N5CC6CCC(C5)N6)nc(OCCN5CCC(CC6CCN(CC7CCN(c8ccc9c(c8)CN(C8(C)CCC(=O)NC8=O)C9=O)CC7)CC6)CC5)nc4c3F)c12` (centres unmarked) [Compound 97] had a DC50 greater than 1 µM.
Regarding `C#Cc1c(F)ccc2cc(O)cc(-c3ncc4c(N5CC6CCC(C5)N6)nc(OCCN5CCC(CC6CCN(CC7CCN(c8ccc9c(c8)n(C(C)C)c(=O)n9C8CCC(=O)NC8=O)CC7)CC6)CC5)nc4c3F)c12` (centres unmarked) [Compound 98, 3-{5-[4-({4-[(1-{2-[(4-{3,8-diazabicyclo[3.2.1]octan-3-yl}-7-(8-ethynyl-7-fluoro-3-hydroxynaphthalen-1-yl)-8-fluoropyrido[4,3-d]pyrimidin-2-yl)oxy]ethyl}piperidin-4-yl)methyl]piperidin-1-yl}methyl)piperidin-1-yl]-2-oxo-3-(propan-2-yl)-2,3-dihydro-1H-1,3-benzodiazol-1-yl}piperidine-2,6-dione], the Dmax was greater than 70% and the 50% degradation concentration (DC50) is less than 5.1 µM.
In the same order, the values of `C#Cc1c(F)ccc2cc(O)cc(-c3ncc4c(N5CC6CCC(C5)N6)nc(OCC5(CN6CCC(CC7CCN(c8ccc9c(c8)CN(C8CCC(=O)NC8=O)C9=O)CC7)CC6)CC5)nc4c3F)c12` (centres unmarked) [Compound 99, 3-{5-[4-({1-[(1-{[(4-{3,8-diazabicyclo[3.2.1]octan-3-yl}-7-(8-ethynyl-7-fluoro-3-hydroxynaphthalen-1-yl)-8-fluoropyrido[4,3-d]pyrimidin-2-yl)oxy]methyl}cyclopropyl)methyl]piperidin-4-yl}methyl)piperidin-1-yl]-1-oxo-2,3-dihydro-1H-isoindol-2-yl}piperidine-2,6-dione] are greater than 70% and less than 5.1 µM.
